Results as given in EP0180581B2, “DRUG PREPARATIONS OF REDUCED TOXICITY” (THE LIPOSOME COMPANY, INC., priority 1984, dated 1985).
Where two headings read alike, the source gives them in different places.

Columns and labels:
Swiss Webster mice [1] = test: Toxicity (lethality) of streptomycin administered with and without ligand, subcutaneous; type: in vivo; conditions: streptomycin 1000 mg/kg subcutaneously, ligand 1:3 molar ratio, mixed immediately prior to administration
[2] = LD50 of aminoglycoside antibiotics with and without phosphorylcholine, subcutaneous; type: in vivo; conditions: mouse, in vivo, sc, mg aminoglycoside antibiotic per kg body weight, Swiss Webster mice, survivors after 24 hours, read-out: LD₅₀
Description: (§1) In order to determine the LD₅₀ of the aminoglycoside preparations a quantity of antibiotic was dissolved in 20 m| distilled water with or without phosphorylcholine to achieve a final 1:3 molar ratio of antibiotic to ligand. Then, 0.6 m| aliquots of serial dilutions of the aminoglycoside preparations were injected subcutaneously into Swiss Webster mice (ten animals per group, average weight 23 g each). After 24 hours the number of survivors in each group was determined and the LD₅₀ and 95% confidence limits for each were computed according to the Spearman-Karber Method for Quantal Data (from Finney, 1952, Statistical Method in Biological Assay, Hafner Pub. Co., New York).

patients = conditions: cited from earlier work
[3] = in vitro; cited from earlier work
mice = test: Acute toxicity of streptomycin-ligand preparations, subcutaneous (Table II); type: in vivo; conditions: for effectiveness in reducing the toxicity of streptomycin: ligand mixed with streptomycin (1:3 or 1:1 molar ratio), 1000 mg streptomycin per kg subcutaneously in mice
Swiss Webster mice [4] = test: LD50 of aminoglycoside antibiotics with and without phosphorylcholine, subcutaneous; type: in vivo; conditions: mg aminoglycoside antibiotic per kg body weight, survivors after 24 hours
Description: as §1

male Swiss-Webster mice = conditions: mouse, in vivo, iv, 400 mg/kg
Description: Six male Swiss-Webster mice weighing 27 gms each were given a single intravenous injection of 400 mg/kg PEG-cholesterol.

C. albicans = test: Minimum inhibitory concentration for C. albicans; type: cell-based; conditions: 50% growth inhibition, overnight at 35° C
Description: The minimum inhibitory concentration (M.I.C.) of the amphotericin B preparations for C. albicans was determined as follows: each of the 5 preparations was serially diluted in a 96 round-bottomed well plate, using 1/2 step dilutions of drug in 50 »| Mico-broth per well and 3 wells for each dilution step. After dilutions were completed, each well received 50 »| broth containing 10³ cells of C. albicans. Plates were incubated overnight at 35° C in a humidified atmosphere.

L cells = test: Cloning efficiency of L cells; type: cell-based
Description: Plastic petri dishes (35 mm diameter) were seeded with 50 L-cells per dish in 2 m| MEM plus 10% fetal calf serum containing one of the amphotericin B preparations (2 dishes per amphotericin B preparation). The dishes were incubated for 10 days and the cloned cultures were stained with crystal violet as described above.

erythrocytes = test: Hemolytic effect on erythrocytes (released hemoglobin); type: cell-based
L-cells [5] = conditions: mouse, 72 h
L-cells [6] = test: Cytotoxicity for L-cells (50% growth inhibition); conditions: 72 hours at 37°C
[7] = AmB preparations at 25 @g amphotericin B/m| medium, 10 days

[H]/N=C(/N)N[C@H]1[C@H](O)[C@@H](O)[C@H](O[C@@H]2O[C@@H](C)[C@](O)(C=O)[C@H]2O[C@@H]2O[C@@H](CO)[C@H](O)[C@@H](O)[C@@H]2NC)[C@@H](N/C(N)=N\[H])[C@@H]1O [Streptomycin, streptomycin]
Lethality No. Dead/No. Inoculated (Swiss Webster mice [1]): 7/8 | Percent Lethality (Swiss Webster mice [1]): 87.5% | LD50 at 24 h [2]: 741 mg/kg | patients manifesting some vestibular disturbance (patients; 2g daily for 60 to 120 days): ~75% | incidence of vestibular disturbance (patients; dose reduced to 1g daily): 25%

C[C@@H]1[C@H](O)[C@@H](C)/C=C/C=C/C=C/C=C/C=C/C=C/C=C/[C@H](O[C@@H]2O[C@H](C)[C@@H](O)[C@H](N)[C@@H]2O)C[C@@H]2O[C@](O)(C[C@@H](O)C[C@@H](O)[C@H](O)CC[C@@H](O)C[C@@H](O)CC(=O)O[C@H]1C)C[C@H](O)[C@H]2C(=O)O [amphotericin B]
affinity for ergosterol compared to cholesterol [3]: approximately ten times greater affinity

C[N+](C)(C)CCOP(=O)([O-])OC[C@H](O)CO [glycerolphosphorylcholine]
effectiveness in reducing aminoglycoside toxicity (mice; general statement on ligands): less effective

egg lysophosphatidylcholine
effectiveness in reducing aminoglycoside toxicity (mice; mouse, in vivo): very effective in reducing aminoglycoside toxicity

Gentamycin
LD₅₀ (Swiss Webster mice [4]): 692 mg/kg

polyethylene glycol-cholesterol [PEG-Chol]
overt signs of toxicity (male Swiss-Webster mice): No overt signs of toxicity | Minimum Inhibitory Concentration of Amphotericin B, C. albicans (C. albicans): 25,000+ @g/m| | Number of Clones, Number of Colonies (L cells): 83 | Size of Colonies, Mean Diameter (L cells): 2.5 | Number of Clones, % of Control (L cells; mouse, l cells, 240 h): 86.5% | Size of Colonies, % of Control (L cells; mouse, l cells, 240 h): 100% | OD550nm (erythrocytes): 0.03 | Minimum Inhibitory Concentration of Amphotericin B, L cells (L-cells [5]): 500.0+ @g/m|

NCCOP(=O)(O)O [phosphorylethanolamine]
effectiveness in reducing aminoglycoside toxicity (mice; general statement on ligands): less effective

deoxycholate [DOC]
Minimum Inhibitory Concentration of Amphotericin B, C. albicans (C. albicans): 5,000+ @g/m| | Number of Clones, % of Control (L cells; [7]): 70.8% | Number of Clones, Number of Colonies (L cells; [7]): 68 | Size of Colonies, % of Control (L cells; [7]): 92% | Size of Colonies, Mean Diameter (L cells; [7]): 2.3 | OD550nm (erythrocytes; concentration 1 @g/m|, 2% erythrocytes, 37°C, 20 hours): 0.03 | OD550nm (erythrocytes; concentration 2 @g/m|, 2% erythrocytes, 37°C, 20 hours): 0.03 | OD550nm (erythrocytes; concentration 2.5 @g/m|, 2% erythrocytes, 37°C, 20 hours): 0.03 | OD550nm (erythrocytes; concentration 15 @g/m|, 2% erythrocytes, 37°C, 20 hours): 0.03 | OD550nm (erythrocytes; concentration 30 @g/m|, 2% erythrocytes, 37°C, 20 hours): 0.03 | OD550nm (erythrocytes; concentration 60 @g/m|, 2% erythrocytes, 37°C, 20 hours): 0.06 | OD550nm (erythrocytes; concentration 125 @g/m|, 2% erythrocytes, 37°C, 20 hours): 0.23 | OD550nm (erythrocytes; concentration 250 @g/m|, 2% erythrocytes, 37°C, 20 hours): 0.47 | Minimum Inhibitory Concentration of Amphotericin B, L cells (L-cells [6]): 250.0 @g/m|

C[N+](C)(C)CCOP(=O)(O)O [phosphorylcholine]
effectiveness in reducing aminoglycoside toxicity (mice; general statement on ligands): very effective in reducing aminoglycoside toxicity | effectiveness in reducing the toxicity of streptomycin (mice): very effective in reducing the toxicity of streptomycin

O=P(O)(O)O[C@H]1[C@H](OP(=O)(O)O)[C@@H](OP(=O)(O)O)[C@H](OP(=O)(O)O)[C@@H](OP(=O)(O)O)[C@H]1OP(=O)(O)O [inositol hexaphosphate]
effectiveness in reducing the toxicity of streptomycin (mice): very effective in reducing the toxicity of streptomycin

Neomycin
LD₅₀ (Swiss Webster mice [4]): 371 mg/kg
